# Tested on: eIF4E Ser209 phosphorylation in Hela cells
# Assay: MNK cell-based assay (AlphaScreen SureFire, eIF4E Ser209 phosphorylation)
# Settings: Homo sapiens, HeLa, 2 h, read-out: IC50 Hela
# Outline: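 Hela cells (30,000/well) exposed to test compound in serum-free medium for 2 h at 37 °C, then lysed. Phospho-Ser209 eIF4E quantified by AlphaScreen SureFire; IC50 obtained by non-linear regression of signal versus log compound concentration.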
row,SMILES,IC50
1,"Cc1cc2ncc(-c3ccc(C#N)cc3)n2cc1-c1ccc(C(=O)N2CCC(C)(N)CC2)cc1 [Example 137, 4-(6-(4-(4-amino-4-methylpiperidine-1-carbonyl)phenyl)-7-methylimidazo[1,2-a]pyridin-3-yl)benzonitrile]",< 1000 nM

# Same assay, conditions: Homo sapiens; eIF4E Ser209 phosphorylation, Hela cells, 2 hours; read-out: IC50 Hela
row,IC50,SMILES
1,< 1000 nM,"CN1CCN(C(=O)c2ccc(-c3ccc4ncc(-c5ccc(C#N)cc5)n4c3)c(F)c2)CC1 [Example 140, 4-(6-(2-fluoro-4-(4-methylpiperazine-1-carbonyl)phenyl)imidazo [1,2-a]pyridin-3-yl)benzonitrile]"
2,< 1000 nM,"CN1CCN(C(=O)c2ccc(-c3ccc4ncc(-c5ccc(C#N)cc5)n4c3)cc2Cl)CC1 [Example 141, 4-(6-(3-chloro-4-(4-methylpiperazine-1-carbonyl)phenyl)imidazo[1,2-a]pyridin-3-yl)benzonitrile]"
3,< 1000 nM,"CN1CCN(C(=O)c2ccc(-c3ccc4ncc(-c5ccc(C#N)cc5)n4c3)cc2F)CC1 [Example 142, 4-(6-(3-fluoro-4-(4-methylpiperazine-1-carbonyl)phenyl)imidazo[1,2-a]pyridin-3-yl)benzonitrile]"
4,< 1000 nM,"CN1CCN(C(=O)c2ccc(-c3ccc4ncc(-c5ccc(C#N)cc5)n4c3)cc2C(F)(F)F)CC1 [Example 145, 4-(6-(4-(4-methylpiperazine-1-carbonyl)-3-(trifluoromethyl)phenyl)imidazo[1,2-a]pyridin-3-yl)benzonitrile]"
5,< 1000 nM,"CN1CCN(C(=O)c2ccc(-c3ccc4ncc(-c5ccc(C#N)cc5)n4c3)cc2N)CC1 [Example 146, 4-(6-(3-amino-4-(4-methylpiperazine-1-carbonyl)phenyl)imidazo [1,2-a]pyridin-3-yl)benzonitrile]"
6,< 1000 nM,"CN1CCN(C(=O)c2ccc(-c3ccc4ncc(-c5ccc(C#N)cc5)n4c3)cc2N(C)C)CC1 [Example 147, 4-(6-(3-(dimethylamino)-4-(4-methylpiperazine-1-carbonyl)phenyl)imidazo[1,2-a]pyridin-3-yl)benzonitrile]"

# More lines, now with the values behind:
row,SMILES,IC50
1,"N#Cc1ccc(-c2cnc3ccc(-c4ccc(C(=O)N5CCN(C(=O)c6ccccc6)CC5)cc4)cn23)cc1 [Example 126, 4-(6-(4-(4-benzoylpiperazine-1-carbonyl)phenyl)imidazo[1,2-a]pyridin-3-yl)benzonitrile]",< 1000 nM
2,"N#Cc1ccc(-c2cnc3ccc(-c4ccc(C(=O)N5CCN(Cc6ccc(C(N)=O)cc6)CC5)cc4)cn23)cc1 [Example 129, 4-((4-(4-(3-(4-cyanophenyl)imidazo[1,2-a]pyridin-6-yl)benzoyl)piperazin-1-yl)methyl)benzamide]",< 1000 nM
3,"CN1CCN(C(=O)c2ccc(-c3ccc4ncc(-c5ccc(C#N)cc5)n4c3)cc2)CC1=O [Example 130, 4-(6-(4-(4-methyl-3-oxopiperazine-1-carbonyl)phenyl)imidazo[1,2-a]pyridin-3-yl)benzonitrile]",< 1000 nM
4,"N#Cc1ccc(-c2cnc3ccc(-c4ccc(C(=O)N5CCC(N6CCOCC6)CC5)cc4)cn23)cc1 [Example 134, 4-(6-(4-(4-morpholinopiperidine-1-carbonyl)phenyl)imidazo[1,2-a]pyridin-3-yl)benzonitrile]",< 1000 nM
5,"Cc1nnc(C2(C)CCN(C(=O)c3ccc(-c4ccc5ncc(-c6ccc(C#N)cc6)n5c4)cc3)CC2)o1 [Example 135, 4-(6-(4-(4-methyl-4-(5-methyl-1,3,4-oxadiazol-2-yl)piperidine-1-carbonyl)phenyl)imidazo [1,2-a]pyridin-3-yl)benzonitrile]",< 1000 nM
6,"Cc1cc2ncc(-c3ccc(C#N)cc3)n2cc1-c1ccc(C(=O)N2CCN(C)CC2)cc1 [Example 138, 4-(7-methyl-6-(4-(4-methylpiperazine-1-carbonyl)phenyl)imidazo[1,2-a]pyridin-3-yl)benzonitrile]",< 1000 nM

# Same assay, conditions: eIF4E Ser209 phosphorylation, Hela cells, 2 hours; read-out: IC50 Hela
row,SMILES,IC50
1,CN1CCN(C(=O)c2ccc(-c3ccc4ncc(-c5ccc(C#N)cc5)n4c3)cc2O)CC1 [Example 143],< 1000 nM
2,CN1CCN(C(=O)c2ccc(-c3ccc4ncc(-c5ccc(C#N)cc5)n4c3)c(O)c2)CC1 [Example 144],< 1000 nM

# Source: patent US20190211020A1 (Agency for Science, Technology and Research, priority 2012, published 2019)
